Series [1] addresses T1, Leucine--tRNA ligase (Mycobacterium tuberculosis (strain ATCC 25618 / H37Rv)) (UniProt P9WFV1).
T1 sequence (whole entry): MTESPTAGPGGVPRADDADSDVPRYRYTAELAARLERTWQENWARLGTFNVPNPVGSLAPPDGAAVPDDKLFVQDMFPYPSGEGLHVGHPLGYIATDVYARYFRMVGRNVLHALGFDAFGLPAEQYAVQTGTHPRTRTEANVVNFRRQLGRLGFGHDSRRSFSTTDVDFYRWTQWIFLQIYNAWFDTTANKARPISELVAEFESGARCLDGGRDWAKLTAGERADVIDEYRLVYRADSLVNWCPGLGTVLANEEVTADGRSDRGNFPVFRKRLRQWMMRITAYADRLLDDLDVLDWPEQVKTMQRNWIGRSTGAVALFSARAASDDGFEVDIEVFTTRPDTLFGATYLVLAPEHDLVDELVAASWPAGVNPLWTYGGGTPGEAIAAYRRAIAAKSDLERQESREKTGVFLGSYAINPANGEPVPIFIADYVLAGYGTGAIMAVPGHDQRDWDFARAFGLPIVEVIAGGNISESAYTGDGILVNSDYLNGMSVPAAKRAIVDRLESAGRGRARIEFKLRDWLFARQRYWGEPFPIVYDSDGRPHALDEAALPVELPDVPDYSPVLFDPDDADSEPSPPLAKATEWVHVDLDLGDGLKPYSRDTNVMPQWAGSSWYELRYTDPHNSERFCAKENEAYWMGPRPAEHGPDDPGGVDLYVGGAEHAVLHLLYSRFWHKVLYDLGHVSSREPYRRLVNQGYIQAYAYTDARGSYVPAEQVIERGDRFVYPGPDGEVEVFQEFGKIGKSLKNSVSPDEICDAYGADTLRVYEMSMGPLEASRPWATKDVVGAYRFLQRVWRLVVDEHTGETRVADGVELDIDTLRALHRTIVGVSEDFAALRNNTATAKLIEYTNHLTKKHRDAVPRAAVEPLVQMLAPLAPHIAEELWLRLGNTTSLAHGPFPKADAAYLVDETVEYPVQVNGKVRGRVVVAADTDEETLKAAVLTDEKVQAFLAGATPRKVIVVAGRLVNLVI
Nature of the series: Inhibition of Mycobacterium tuberculosis LeuRS expressed in Escherichia coli Rosetta (DE3) cells at 100 uM incubated for 30 mins followed by incubation with ATP, leucine, tRNA, iPPase for 10 mins and measured after 30 mins by BIOMOL Green reagent based plate reader analysis relative to control.

Series [2] deals with Mycobacterium tuberculosis H37Rv. As to the kind of experiment: Inhibition of recombinant Mycobacterium tuberculosis H37Rv C-terminal His6-tagged MetRS expressed in Escherichia coli BL21 (DE3) Star cells at 100 uM incubated for 30 mins followed by incubation with ATP, methionine, tRNA, iPPase for 10 mins and measured after 30 mins by BIOMOL Green reagent based plate reader analysis relative to control.

For a further series, the target named is T2, Leucine--tRNA ligase (Mycobacterium tuberculosis (strain ATCC 25618 / H37Rv), UniProt P9WFV1).
T2 sequence (P9WFV1 whole entry): T1 sequence (whole entry)
As to the kind of experiment: Inhibition of Mycobacterium tuberculosis LeuRS expressed in Escherichia coli Rosetta (DE3) cells incubated for 30 mins followed by incubation with ATP, leucine, tRNA, iPPase for 10 mins and measured after 30 mins by BIOMOL Green reagent based plate reader analysis.

The nature of series [3]: Inhibition of recombinant Mycobacterium tuberculosis H37Rv C-terminal His6-tagged MetRS expressed in Escherichia coli BL21 (DE3) Star cells incubated for 30 mins followed by incubation with ATP, methionine, tRNA, iPPase for 10 mins and measured after 30 mins by BIOMOL Green reagent based plate reader analysis. The settings on record: read-out: IC50.
The subject of series [4] is Mycobacterium tuberculosis. The format is functional. The settings on record: H37Rv ATCC 27294, 168 h.
Series [5] relates to Mycobacterium tuberculosis. The format is functional. Conditions: H37Rv ATCC 27294, 336 h.
Series [6] has as its system Mycobacterium tuberculosis. The format is functional. Conditions: H37Rv ATCC 27294, 168 h. This is another data set of the same source.
Series [7] deals with Mycobacterium tuberculosis. Type of series: functional. The settings on record: H37Rv ATCC 27294, 336 h. The source holds these as a separate data set.
Series [8] relates to Mycobacterium tuberculosis. Type of series: functional. Conditions: H37Rv ATCC 27294, 168 h. The source holds these as a separate data set.
Series [9] relates to Mycobacterium tuberculosis. Type of series: functional. The settings on record: H37Rv ATCC 27294, 336 h. This is another data set of the same source.
For series [10], the system named is Mycobacterium tuberculosis. Type of series: functional. The settings on record: H37Rv ATCC 27294, 168 h. This is another data set of the same source.
For series [11], the system named is Mycobacterium tuberculosis. Type of series: functional. Conditions: H37Rv ATCC 27294, 336 h. This is another data set of the same source.
Series [12] is described as follows: Cytotoxicity against human HEK293 cells assessed as reduction in cell viability incubated for 72 hrs by MTT assay. Type of series: cell-based. (Tetrazolium assays rely on reduction of a dye to a coloured formazan, in cell work by metabolically active cells.)
The nature of series [13]: Cytotoxicity against human HepG2 cells assessed as reduction in cell viability incubated for 72 hrs by MTT assay. Type of series: cell-based.

Converted amounts (≈) assume the structure as drawn.

The inhibition is the change of the read-out against control, counted positive when it falls. As a reminder, the IC50 is the concentration that inhibits the measured activity by half. The MIC is the lowest concentration that inhibits growth of the organism. A high value points to weaker potency. As usually defined, the CC50 is the concentration giving 50% cytotoxicity. Turning to `COc1ccc(/C=N/Nc2nc(-c3ccc(F)cc3)cs2)cc1Br`, the figures for the inhibition in series [1] and in series [2] were 109% and 121%, respectively. Also, the figures for the IC50 (against Leucine--tRNA ligase; in series [3]) were 12.5 µM and 10.7 µM, respectively. Besides, the minimum inhibitory concentration (MIC) in series [4] was determined as 1.56 µM (≈ 0.634 µg/mL); in [5], 2.3 µM (≈ 0.934 µg/mL); in series [6] it was 19 µM (≈ 7.72 µg/mL); in [7], 37 µM (≈ 15 µg/mL); in series [8], 0.78 µM (≈ 0.317 µg/mL); in series [9], 2.3 µM (≈ 0.934 µg/mL). Further, the results for the MIC in series [10] and in series [11] were 9.4 µM (≈ 3.82 µg/mL) and 25 µM (≈ 10.2 µg/mL), respectively. Further, the CC50 at 72 h in [12] and in series [13] was > 100 µM each time.
With `O=C(O)c1ccc(/C=N/Nc2nc(-c3ccc(Cl)cc3Cl)cs2)cc1`, the inhibition worked out at 101% in series [1] and 92% in [2]. Further, the IC50 came out at 27.3 µM against Leucine--tRNA ligase and 22.7 µM in series [3]. The minimal inhibitory concentration (MIC) in [4], in series [5], in series [6], in [7], in series [8] and in [9] was > 50 µM throughout. For the same compound, the MIC in series [10] and in [11] was > 50 µM each time.

Values taken from ChEMBL document CHEMBL4373683, “Dual-target inhibitors of mycobacterial aminoacyl-tRNA synthetases among N-benzylidene-N'-thiazol-2-yl-hydrazines” (Medchemcomm, 2019).
